Earlier results, collected in US9481672B2 (priority 2012, dated 2016).

Test system: chymase
Conditions: hamsters, myocardial infarction model

## CCOc1ccccc1CC1C(=O)N(C(=O)NC(c2ccc(C)cc2)c2ccc(C)cc2)C1Oc1ccc(C(=O)O)cc1 (stereo not drawn) [BCEAB]
  chymase activity: reduced
  haemodynamics: improved
  mortality: reduced
